Assay results: publication PMC4956498 (Planta medica, 2016)
Where two headings read alike, the source gives them in different places.

Assays:
[1] = tested on: quinone reductase; experiment: Quinone reductase induction assay in Hepa 1c1c7 cells; format: cell-based, mouse; details: for CD, concentration required to double quinone reductase activity: 48 h
[2] = tested on: Hepa 1c1c7 cells; experiment: Cytotoxicity against Hepa 1c1c7 cells; format: cell-based, mouse; details: read-out: IC50, concentration that inhibits 50% cell growth
[3] = target: K-Ras (Homo sapiens, UniProt P01116); experiment: K-Ras inhibition assay in HT-29 cells; format: cell-based; details: for IC50: read-out: K-Ras inhibition IC50
[4] = target: p65 subunit of NF-κB (Homo sapiens, UniProt Q04206); experiment: cell-based; format: cell-based
Sequence of p65 subunit of NF-κB (Q04206 whole entry): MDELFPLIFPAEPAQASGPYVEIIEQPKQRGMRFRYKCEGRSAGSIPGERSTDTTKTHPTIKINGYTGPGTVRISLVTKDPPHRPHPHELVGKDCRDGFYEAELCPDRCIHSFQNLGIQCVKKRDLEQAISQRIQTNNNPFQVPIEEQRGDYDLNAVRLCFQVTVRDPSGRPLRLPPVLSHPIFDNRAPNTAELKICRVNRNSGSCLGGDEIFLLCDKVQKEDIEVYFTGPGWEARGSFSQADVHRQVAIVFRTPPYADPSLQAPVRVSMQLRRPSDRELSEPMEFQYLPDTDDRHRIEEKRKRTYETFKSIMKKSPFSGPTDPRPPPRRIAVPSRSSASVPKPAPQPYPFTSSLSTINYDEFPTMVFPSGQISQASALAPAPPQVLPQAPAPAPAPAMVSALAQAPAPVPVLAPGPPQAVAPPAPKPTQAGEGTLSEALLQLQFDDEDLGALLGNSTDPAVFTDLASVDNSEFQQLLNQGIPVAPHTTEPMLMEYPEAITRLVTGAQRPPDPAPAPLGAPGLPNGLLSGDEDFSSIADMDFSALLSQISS

[5] = in vitro; details: human
[6] = tested on: CCD-112CoN human normal colon cell line; details: cited from earlier work
[7] = tested on: mice; details: cited from earlier work; for LD50, acute toxicity to mice: ip administration
[8] = tested on: quinone reductase; details: in vitro; cited from earlier work
[9] = read-out: NF-κB p65 inhibition IC50, in HeLa cells

COC1=CC2=C(O[C@H]3COc4cc5c(cc4[C@@]3(O)C2=O)OCO5)C(CC=C(C)C)(CC=C(C)C)C1=O (relative stereo) [Compound 3, (6aS,12aS)-rel-6a,12a-dihydro-12a-hydroxy-10-methoxy-8,8-bis(3-methyl-2-buten-1-yl)-[1]benzopyrano[2,3-c]-1,3-dioxolo[4,5-g][1] benzopyran-9,12(6H, 8H)-dione]
CI, chemopreventive index (IC50/CD) [1]: >16.8
CD, concentration required to double quinone reductase activity [1]: 2.4 µM
IC50 ([2]; Hepa 1c1c7 cell line, 48 h): > 40 µM

COc1cc2c(cc1OC)C1(O)C(=O)c3c(O)cc4c(c3OC1CO2)C=CC(C)(C)O4 (single isomer, unassigned; (+)) [Compound 11, (+)-3-hydroxy-α-toxicarol]
CD, concentration required to double quinone reductase activity [1]: 6.6 µM
IC50 ([2]; Hepa 1c1c7 cell line, 48 h): > 40 µM
K-Ras inhibitory activity (in words) [3]: inactive

COc1cc2c(c3c1OC(C)(C)C=C3)O[C@H]1COc3cc4c(cc3[C@@]1(O)C2=O)OCO4 [Compound 1, (5aS ,12bS)-5a,12b-dihydro-12b-hydroxy-15-methoxy-2,2-dimethyl-2H-[1, 3]dioxolo[4,5-g]pyrano[2,3-c:6,5-f ‘]bis[1]benzopyran-13(6H)-one]
CD, concentration required to double quinone reductase activity [1]: 19.8 µM
IC50 [4, 9]: > 10 µM
IC50 ([2]; Hepa 1c1c7 cell line, 48 h): > 40 µM
IC50 [3]: 9.4 µM

COc1cc2c(c3c1OC(C)(C)C=C3)O[C@H]1COc3cc4c(cc3[C@H]1C2=O)OCO4 [Compound 2, (5aR, 12bR)-5a,12b-dihydro-15-methoxy-2,2-dimethyl-2H-[1, 3]dioxolo[4,5-g]pyrano[2,3-c:6,5-f'] bis[1]benzopyran-13(6H)-one]
CI, chemopreventive index (IC50/CD) [1]: 8.1
CD, concentration required to double quinone reductase activity [1]: 2.2 µM
IC50 ([2]; Hepa 1c1c7 cell line, 48 h): 17.8 µM

C=C(C)[C@H]1Cc2c(ccc3c2O[C@@H]2COc4cc(OC)c(OC)cc4[C@@H]2C3=O)O1 [Compound 7, (−)-rotenone]
IC50 at 3 days [5]: 300 nM
Cytotoxicity against the CCD-112CoN human normal colon cell line (in words) [6]: lack of cytotoxicity
IC50 [4]: > 10 µM
LD50, acute toxicity to mice [7]: 2.5 mg/kg

COc1cc2c(cc1-c1coc3c4c(c(OC)cc3c1=O)OC(C)(C)C=C4)OCO2 [Compound 8, ichthynone]
IC50 [5]: > 10 µM
CI, chemopreventive index (IC50/CD) [1]: 19.4
CD, concentration required to double quinone reductase activity [1]: 1.8 µM
IC50 [4]: > 10 µM
IC50 ([2]; Mus musculus, Hepa-1c1c7, 48 h): 35 µM

C[S@@+]([O-])CCCCN=C=S [L-sulforaphane, reference compound]
CI, chemopreventive index (IC50/CD) [1]: 40.8
CD, concentration required to double quinone reductase activity [1]: 0.51 µM
IC50 ([2]; Mus musculus, Hepa-1c1c7, 48 h): 20.9 µM

COc1cc2c(cc1OC)[C@@H]1C(=O)c3ccc4c(c3O[C@@H]1CO2)C=CC(C)(C)O4 [deguelin, reference compound]
LD50, acute toxicity to mice [7]: 5.0 mg/kg

(−)-3-hydroxyrotenone [Compound 6]
Cytotoxicity against the CCD-112CoN human normal colon cell line (in words) [6]: lack of cytotoxicity
IC50 [4, 9]: 5.3 µM
IC50 [3]: 3.1 µM
Lethality to mice ([7]; dose of 5 mg/kg (ip)): lethal

caeruleanone C
Quinone reductase (QR) induction (in words) [8]: potently induce
